Literature values as cited in publication PMC8815272 (The Journal of Supercritical Fluids, 2022).
Structures can show the parent of a compound that is named as a salt. Where two headings read alike, the source gives them in different places.

Settings: cited from earlier work
[1] = SC-CO2, 12–30 MPa, 313.2–343.2 K
[2] = SC-CO2, 12–33 MPa, 308.15–338.15 K
[3] = SC-CO2, 12.16–35.46 MPa, 308–348 K
[4] = SC-CO2, 12.2–35.5 MPa, 308–348 K
[5] = SC-CO2, 18.3–33.5 MPa, 308–328 K
[6] = SC-CO2, 15.5–30.5 MPa, 315–345 K
[7] = SC-CO2, 9–25 MPa, 308.2–328.2 K
[8] = SC-CO2, 12–27 MPa, 308.2–338.2 K
[9] = SC-CO2, 10–26 MPa, 308.2–328.2 K
[10] = SC-CO2, 9.2–24.4 MPa, 308.2–328.2 K
[11] = SC-CO2, 12–30 MPa, 308.2–338.2 K
[12] = SC-CO2, 12–27 MPa, 308.15–338.15 K
[13] = SC-CO2, 14.9–25.5 MPa, 303–323 K
[14] = SC-CO2, 10–30.3 MPa, 308.2–328.2 K

Compound: CC(C)N1c2ccccc2C(C)(C)C12C=Nc1c(cc(N3CCc4ccccc43)c3ccccc13)O2 (stereo not drawn) [1,3-dihydro-3,3-dimethyl-1-isopropyl-6-(2,3)-(dihydroindole-1-yl)spiro[2 H-indole-2,3 − 3 H-naphtho[2,1-b][1,4]oxazine]]
- Crossover (MPa) (SC-CO2, 10–26 MPa, 308–328 K): 17 MPa
- Mole fraction (y) (SC-CO2, 10–26 MPa, 308–328 K): 2.2 × 10^-7 to 5.05 × 10^-6

Compound: CCCCc1oc2ccccc2c1C(=O)c1cc(I)c(OCCN(CC)CC)c(I)c1 [Amiodarone hydrochloride]
- Crossover (MPa) [1]: 19 MPa
- Mole fraction (y) [1]: 2.510 × 10^−5 to 1.012 × 10^−3

Compound: C[C@@H](O[C@H]1OCCN(Cc2n[nH]c(=O)[nH]2)[C@H]1c1ccc(F)cc1)c1cc(C(F)(F)F)cc(C(F)(F)F)c1 [Aprepitant]
- Crossover (MPa) [2]: 15–18 MPa
- Mole fraction (y) [2]: 4.50 × 10^−6 to 7.67 × 10^−5

Compound: C[C@@H]1CC[C@H]2[C@@H](C)C(=O)O[C@@H]3O[C@@]4(C)CC[C@@H]1[C@]32OO4 [Artemisinin]
- Crossover (MPa) (SC-CO2, 10–25 MPa, 303–328 K): 13–17 MPa
- Mole fraction (y) (SC-CO2, 10–25 MPa, 303–328 K): 10^-4 to 10^-3

Compound: CC(C)c1c(C(=O)Nc2ccccc2)c(-c2ccccc2)c(-c2ccc(F)cc2)n1CC[C@@H](O)C[C@@H](O)CC(=O)O [Atorvastatin]
- Crossover (MPa) [3]: 17 MPa
- Mole fraction (y) [3]: 1.12 × 10^−6 to 1.45 × 10^−3

Compound: Cn1cnc([N+](=O)[O-])c1Sc1ncnc2nc[nH]c12 [Azathioprine]
- Crossover (MPa) (SC-CO2, 12–27 MPa, 308–338 K): 12–15 MPa
- Mole fraction (y) (SC-CO2, 12–27 MPa, 308–338 K): 0.27 × 10^−5 to 1.83 × 10^−5

Compound: CC[C@H]1OC(=O)[C@H](C)[C@@H](O[C@H]2C[C@@](C)(OC)[C@@H](O)[C@H](C)O2)[C@H](C)[C@@H](O[C@@H]2O[C@H](C)C[C@H](N(C)C)[C@H]2O)[C@](C)(O)C[C@@H](C)CN(C)[C@H](C)[C@@H](O)[C@]1(C)O [Azithromycin]
- Crossover (MPa) [4]: 13.8–14 MPa
- Mole fraction (y) [4]: 6.9 × 10^−5 to 2.73 × 10^−4

Compound: CS(=O)(=O)OCCCCOS(C)(=O)=O [Busulfan]
- Crossover (MPa) (SC-CO2, 12–40 MPa, 308–338 K): 16 MPa

Compound: C=CC1=C(C(=O)O)N2C(=O)[C@@H](NC(=O)/C(=N\OCC(=O)O)c3csc(N)n3)[C@H]2SC1 [Cefixime trihydrate]
- Mole fraction (y) [5]: 1.6 × 10^−7 to 3.02 × 10^−7

Compound: CC[C@H]1OC(=O)[C@H](C)[C@@H](O[C@H]2C[C@@](C)(OC)[C@@H](O)[C@H](C)O2)[C@H](C)[C@@H](O[C@@H]2O[C@H](C)C[C@H](N(C)C)[C@H]2O)[C@](C)(OC)C[C@@H](C)C(=O)[C@H](C)[C@@H](O)[C@]1(C)O [Clarithromycin]
- Crossover (MPa) [4]: 15–15.2 MPa
- Mole fraction (y) [4]: 1.31 × 10^−4 to 3.28 × 10^−4

Compound: CCC[C@@H]1C[C@@H](C(=O)N[C@@H]([C@H]2O[C@H](SC)[C@H](O)[C@@H](O)[C@H]2O)[C@H](C)Cl)N(C)C1 [Clindamycin]
- Crossover (MPa) [4]: 14.8–15.2 MPa
- Mole fraction (y) [4]: 1.77 × 10^−4 to 1.146 × 10^−3

Compound: CCC(=O)O[C@]1(C(=O)CCl)[C@@H](C)C[C@H]2[C@@H]3CCC4=CC(=O)C=C[C@]4(C)[C@@]3(F)[C@@H](O)C[C@@]21C [Clobetasol Propionate]
- Crossover (MPa) [6]: 24.5 MPa
- Mole fraction (y) [6]: 1 × 10^−6 to 2.1 × 10^−5

Compound: CCN(CC)c1ccc2cc(-c3nc4ccccc4[nH]3)c(=O)oc2c1 [Coumarin-7]
- Crossover (MPa) (SC-CO2, 9–33 MPa, 308–338 K): 13–16 MPa
- Mole fraction (y) (SC-CO2, 9–33 MPa, 308–338 K): 4.15 × 10^−6 to 1.00 × 10^−5

Compound: CN1CCC(=C2c3ccccc3C=Cc3ccccc32)CC1 [Cyproheptadine]
- Crossover (MPa) (SC-CO2, 16–40 MPa, 308–338 K): 20 MPa
- Mole fraction (y) (SC-CO2, 16–40 MPa, 308–338 K): 3.35 × 10^−5 to 3.09 × 10^−3

Compound: CC(=O)OCC(=O)[C@H]1CC[C@H]2[C@@H]3CCC4=CC(=O)CC[C@]4(C)[C@H]3CC[C@]12C [Desoxycorticosterone acetate]
- Crossover (MPa) [6]: 24.5 MPa
- Mole fraction (y) [6]: 5 × 10^−6 to 1.03 × 10^−4

Compound: O=C(O)c1cc(-c2ccc(F)cc2F)ccc1O [Diflunisal, 5-(2,4-difluorophenyl)− 2-hydroxybenzoic acid]
- Crossover (MPa) [7]: 15 MPa
- Mole fraction (y) [7]: 0.54 × 10^-6 to 8.07 × 10^-6

Compound: CC[C@H]1OC(=O)[C@H](C)[C@@H](O[C@H]2C[C@@](C)(OC)[C@@H](O)[C@H](C)O2)[C@H](C)[C@@H](O[C@@H]2O[C@H](C)C[C@H](N(C)C)[C@H]2O)[C@](C)(O)C[C@@H](C)C(=O)[C@H](C)[C@@H](O)[C@]1(C)O [Erythromycin]
- Crossover (MPa) [4]: 16.8–17 MPa
- Mole fraction (y) [4]: 4.3 × 10^−5 to 3.12 × 10^−4

Compound: COc1ccc2nc([S@@+]([O-])Cc3ncc(C)c(OC)c3C)[nH]c2c1 [Esomeprazole]
- Crossover (MPa) [8]: 22 MPa
- Mole fraction (y) [8]: 1.11 × 10^-5 to 9.10 × 10^-4

Compound: CC(C(=O)O)c1cccc(Oc2ccccc2)c1 (stereo not drawn) [Fenoprofen]
- Crossover (MPa) (SC-CO2, 12–40 MPa, 308–338 K): 16 MPa
- Mole fraction (y) (SC-CO2, 12–40 MPa, 308–338 K): 2.01 × 10^−5 to 4.20 × 10^−3

Compound: CC(C(=O)O)c1ccc(-c2ccccc2)c(F)c1 (stereo not drawn) [Flurbiprofen]
- Crossover (MPa) (SC-CO2, 8–25 MPa, 303–323 K): 12 MPa
- Mole fraction (y) (SC-CO2, 8–25 MPa, 303–323 K): 2.170 × 10^-5 to 19.683 × 10^-5

Compound: CC(C)n1c(/C=C/C(O)CC(O)CC(=O)O)c(-c2ccc(F)cc2)c2ccccc21 (stereo not drawn) [Fluvastatin]
- Crossover (MPa) [3]: 17 MPa
- Mole fraction (y) [3]: 5 × 10^−6 to 6 × 10^−4

Compound: Cc1ccc(NC(=O)c2ccc(CN3CCN(C)CC3)cc2)cc1Nc1nccc(-c2cccnc2)n1 [Imatinib mesylate]
- Crossover (MPa) [8]: 18–21 MPa
- Mole fraction (y) [8]: 1.0 × 10^−7 to 4.4 × 10^−6

Compound: CC(C)(O)C(=O)c1ccc(OCCO)cc1 [Irgacure® 2959, 2-Hydroxy-4'-(2-hydroxyethoxy)− 2-methylpropiophenone]
- Crossover (MPa) [9]: 14 MPa
- Mole fraction (y) [9]: 5.17 × 10^−6 to 2.83 × 10^−4

Compound: O=C1C=CC(=O)c2c(O)cccc21 [Juglone, 5-hydroxy-1,4-naphthoquinone]
- Crossover (MPa) [10]: 21–22 MPa
- Mole fraction (y) [10]: 2.0 × 10^−5 to 1.6 × 10^−3

Compound: CN1CCC(=C2c3ccccc3CC(=O)c3sccc32)CC1 [Ketotifen fumarate]
- Crossover (MPa) [11]: 20 MPa
- Mole fraction (y) [11]: 2.11 × 10^−5 to 1.07 × 10^−3

Compound: CCOC(=O)N1CCC(=C2c3ccc(Cl)cc3CCc3cccnc32)CC1 [Loratadine]
- Crossover (MPa) [12]: 18–21 MPa
- Mole fraction (y) [12]: 4.50 × 10^−6 to 1.30 × 10^−3

Compound: CC[C@H](C)C(=O)O[C@H]1C[C@@H](C)C=C2C=C[C@H](C)[C@H](CC[C@@H]3C[C@@H](O)CC(=O)O3)[C@H]21 [Lovastatin]
- Crossover (MPa) [3]: 17 MPa

Compound: CC(C(=O)O)c1ccc(CC2CCCC2=O)cc1 (stereo not drawn) [Loxoprofen]
- Crossover (MPa) (SC-CO2, 12–40 MPa, 308–338 K): 20 MPa
- Mole fraction (y) (SC-CO2, 12–40 MPa, 308–338 K): 1.04 × 10^−5 to 1.28 × 10^−3

Compound: Cc1cnc(NC(=O)C2=C(O)c3ccccc3S(=O)(=O)N2C)s1 [Meloxicam sodium]
- Crossover (MPa) [13]: 15–17 MPa
- Mole fraction (y) [13]: 4.41 × 10^−6 to 12.76 × 10^−6

Compound: CCn1cc(C(=O)O)c(=O)c2cc(F)c(N3CCNCC3)cc21 [Norfloxacin]
- Mole fraction (y) [14]: 1.4 × 10^−6 to 24.4 × 10^−6

Compound: CC1COc2c(N3CCN(C)CC3)c(F)cc3c(=O)c(C(=O)O)cn1c23 (stereo not drawn) [Ofloxacin]
- Mole fraction (y) [14]: 0.4 × 10^−6 to 1.3 × 10^−6

Compound: C[C@]12C/C(=C/O)C(=O)C[C@@H]1CC[C@@H]1[C@@H]2CC[C@@]2(C)[C@H]1CC[C@]2(C)O [Oxymetholone]
- Crossover (MPa) [5]: 18 MPa
- Mole fraction (y) [5]: 1.6 × 10^−5 to 1.49 × 10^−4

Compound: CC(C)c1nc(N(C)S(C)(=O)=O)nc(-c2ccc(F)cc2)c1/C=C/[C@@H](O)C[C@@H](O)CC(=O)O [Rosuvastatin]
- Crossover (MPa) [3]: 17 MPa
- Mole fraction (y) [3]: 3 × 10^−6 to 2.44 × 10^−4

Compound: CCC(C)(C)C(=O)O[C@H]1C[C@@H](C)C=C2C=C[C@H](C)[C@H](CC[C@@H]3C[C@@H](O)CC(=O)O3)[C@H]21 [Simvastatin]
- Crossover (MPa) [3]: 17 MPa
- Mole fraction (y) [3]: 2 × 10^−6 to 5.35 × 10^−4

Compound: CNC(=O)c1cc(Oc2ccc(NC(=O)Nc3ccc(Cl)c(C(F)(F)F)c3)cc2)ccn1 [Sorafenib tosylate]
- Mole fraction (y) (SC-CO2, 12–27 MPa, 308–338 K): 0.68 × 10^−6 to 12.57 × 10^−6

Compound: CCN(CC)CCNC(=O)c1c(C)[nH]c(/C=C2\C(=O)Nc3ccc(F)cc32)c1C [Sunitinib malate]
- Mole fraction (y) (SC-CO2, 12–27 MPa, 308–338 K): 0.5 × 10^−5 to 8.56 × 10^−5

Compound: Cc1ccc(C(=O)c2ccc(CC(=O)O)n2C)cc1 [Tolmetin]
- Crossover (MPa) (SC-CO2, 12–40 MPa, 308–338 K): 16 MPa
- Mole fraction (y) (SC-CO2, 12–40 MPa, 308–338 K): 5.00 × 10^−5 to 2.59 × 10^−3

Compound: Nc1nc(N)c2nc(-c3ccccc3)c(N)nc2n1 [Triamterene, 2,4,7-Triamino-6-phenylpteridine]
- Crossover (MPa) (SC-CO2, 12–27 MPa, 308–338 K): 19.2–19.5 MPa
- Mole fraction (y) (SC-CO2, 12–27 MPa, 308–338 K): 0.03 × 10^−5 to 2.89 × 10^−5
